In US20030068615A1, “Polypeptides that bind HIV gp120 and related nucleic acids, antibodies, compositions, and methods of use” (priority 1999, published 2003):
Like-named read-outs stand apart in the source and are kept apart here.

Biological target: HIV-1LAI envelope gp120 (Human immunodeficiency virus type 1 group M subtype B, UniProt P03377)
Format: binding
Conditions: for Binding Results For Window Length (counts bound-background), 9 / Binding Results For Window Length (counts bound-background), 12 / Binding Results For Window Length (counts bound-background), 15 / Binding Results For Window Length (counts bound-background), 18: STRL33 amino terminus; for Binding Results For Window Length (counts bound-background), 9: 9-mer starting at the first residue of the printed sequence; for Binding Results For Window Length (counts bound-background), 12: 12-mer starting at the first residue of the printed sequence; for Binding Results For Window Length (counts bound-background), 15: 15-mer starting at the first residue of the printed sequence; for Binding Results For Window Length (counts bound-background), 18: 18-mer starting at the first residue of the printed sequence; for number of radioactive decays (counts) counted: human CD4 21-mer scan, empty control 2075; for Counts per 20′ Average-background: CCR5 18-mer scan, radiolabeled HIV-1LAI gp120
[1] = Panel D, 9-mers and 12-mers of CD4, empty control […]
[2] = Panel B, 15-mers and 18-mers of CD4, empty control 575
[3] = STRL33 18-mer scan, background subtracted, first of two count columns
[4] = STRL33 18-mer scan, background subtracted, second of two count columns
[5] = CXCR4 18-mer scan, background subtracted, empty control 0
[6] = CXCR4 18-mer scan, empty control 412
[7] = Panel E, 9-mers and 12-mers of CD4, empty control 571
[8] = Panel C, 15-mers and 18-mers of CD4, empty control 556

In the case of GFSSFNDSSQEEEQAFLQ, the “Binding Results For Window Length (counts bound-background), 9” value (background subtracted) is reported as 171 counts, the “Binding Results For Window Length (counts bound-background), 12” value (background subtracted) is reported as 480 counts and the “Binding Results For Window Length (counts bound-background), 15” value (background subtracted) is reported as 270 counts. For the same sequence, the “Binding Results For Window Length (counts bound-background), 18” value (background subtracted) was 1639 counts.
With “GKLHQEVNLVVMRATQLQKNL [human CD4 306-326]” the “number of radioactive decays (counts) counted” value (from here on “number of radioactive decays”) was 1776 counts.
GLHYTCSSEFPYSQYQFW was tested, and the “Counts per 20′ Average-background” value (background subtracted) was 301 counts per 20′.
For GLNNCSSSNRLDQAMQVT [CCR5 segment 265-], the “Counts per 20′ Average-background” value (background subtracted) was −31 counts per 20′.
For GLTANSDTH, the “COUNTS of radiolabeled gp120 retained” value [1] was 481 counts.
With GLTANSDTHLLQ the “COUNTS of radiolabeled gp120 retained” value [1] was 574 counts.
GLTANSDTHLLQGQS was tested, and the “COUNTS of radiolabeled gp120 retained” value [2] was 532 counts.
In the case of GLTANSDTHLLQGQSLTL, the “COUNTS of radiolabeled gp120 retained” value [2] is reported as 572 counts.
“GLVGNSLVLVISIFYHKL [STRL33 segment 45-62]” was tested, and the “radioactive counts recorded in twenty minutes” value (shortened to “radioactive counts recorded”) [3] was 164.5 counts and the “radioactive counts recorded” value [4] was 95.5 counts.
For “GLVILVMGYQKKLRSMTD [CXCR4 segment 57-74]”, the “radioactive counts recorded” value [5] was 157 counts and the “radioactive counts recorded” value [6] was 569 counts.
With GMWQCLLSDSGQVLLESNIKV the “number of radioactive decays” value was 4185 counts.
For GNFLCKAVHVIYTVNLYS, the “radioactive counts recorded” value [5] was 231 counts and the “radioactive counts recorded” value [6] was 643 counts.
For GNFPLIIKN, the “COUNTS of radiolabeled gp120 retained” value [1] was 600 counts.
For GNFPLIIKNLKI, the “COUNTS of radiolabeled gp120 retained” value [1] was 547 counts.
GNFPLIIKNLKIEDS was tested, and the “COUNTS of radiolabeled gp120 retained” value [2] was 624 counts.
For GNFPLIIKNLKIEDSDTY, the “COUNTS of radiolabeled gp120 retained” value [2] was 557 counts.
In the case of GNTMCQLLTGLYFIGFFS [CCR5 segment 97-], the “Counts per 20′ Average-background” value (background subtracted) is reported as 941 counts per 20′.
GQSLTLTLE was tested, and the “COUNTS of radiolabeled gp120 retained” value [1] was 777 counts.
In the case of “GQVLLESNIKVLPTWSTPVQP [human CD4 376-396]”, the “number of radioactive decays” value is reported as 2089 counts.
With “GSGDYDSMKEPCFREENA [CXCR4 segment 17-34]” the “radioactive counts recorded” value [5] was −28 counts and the “radioactive counts recorded” value [6] was 384 counts.
For “GVSNQWKSSEDNSKTFSA [STRL33 segment 313-330]”, the “radioactive counts recorded” value [3] was 208.5 counts and the “radioactive counts recorded” value [4] was 306.5 counts.
In the case of GVVTSVITWVVAVFASLP, the “Counts per 20′ Average-background” value (background subtracted) is reported as 69 counts per 20′.
For GYHDEAISTVVLATQMTL, the “radioactive counts recorded” value [3] was 754.5 counts and the “radioactive counts recorded” value [4] was 1181.5 counts.
In the case of HCCINPIIYAFVGEKFRN [CCR5 segment 289-], the “Counts per 20′ Average-background” value (background subtracted) is reported as 200 counts per 20′.
HDYHEDYGFSSFNDSSQE was tested, and the “Binding Results For Window Length (counts bound-background), 9” value (background subtracted) was 708 counts, the “Binding Results For Window Length (counts bound-background), 12” value (background subtracted) was 1427 counts and the “Binding Results For Window Length (counts bound-background), 15” value (background subtracted) was 1772 counts. For the same sequence, the “Binding Results For Window Length (counts bound-background), 18” value (background subtracted) was 1500 counts.
HEDYGFSSFNDSSQEEHQ was tested, and the “Binding Results For Window Length (counts bound-background), 9” value (background subtracted) was 729 counts, the “Binding Results For Window Length (counts bound-background), 12” value (background subtracted) was 1077 counts and the “Binding Results For Window Length (counts bound-background), 15” value (background subtracted) was 947 counts. For the same sequence, the “Binding Results For Window Length (counts bound-background), 18” value (background subtracted) was 537 counts.
With “HEWVFGQVMCKSLLGIYT [STRL33 segment 93-110]” the “radioactive counts recorded” value [3] was 3391.5 counts and the “radioactive counts recorded” value [4] was 3466.5 counts.
With HFPYSQYQFWKNFQTLKI the “Counts per 20′ Average-background” value (background subtracted) was 1008 counts per 20′.
In the case of “HKWISITEALAFFHCCLN [CXCR4 segment 281-298]”, the “radioactive counts recorded” value [5] is reported as 163 counts and the “radioactive counts recorded” value [6] is reported as 575 counts.
HLLQGQSLT was tested, and the “COUNTS of radiolabeled gp120 retained” value [1] was 564 counts.
With HLLQGQSLTLTL the “COUNTS of radiolabeled gp120 retained” value [1] was 701 counts.
With HLLQGQSLTLTLESP the “COUNTS of radiolabeled gp120 retained” value [2] was 1277 counts.
With “HLTLPQALPQYAGSGNLTLAL [human CD4 281-301]” the “number of radioactive decays” value was 2394 counts.
With HQAFLQFSK the “Binding Results For Window Length (counts bound-background), 9” value (background subtracted) was 2761 counts.
For HSSVSTESESSSFHSS, the “radioactive counts recorded” value [5] was 103 counts and the “radioactive counts recorded” value [6] was 515 counts.
With “HVIYTVNLYSSVLILAFI [CXCR4 segment 113-130]” the “radioactive counts recorded” value [5] was 118 counts and the “radioactive counts recorded” value [6] was 530 counts.
“HWEYYAMTSFHYTIMVTE [STRL33 segment 257-274]” was tested, and the “radioactive counts recorded” value [3] was 2040.5 counts and the “radioactive counts recorded” value [4] was 3065.5 counts.
“ICDRFYPNDLWVVVFQFQ [CXCR4 segment 185-202]” was tested, and the “radioactive counts recorded” value [5] was 306 counts and the “radioactive counts recorded” value [6] was 718 counts.
ICEVEDQKE was tested, and the “COUNTS of radiolabeled gp120 retained” value [1] was 596 counts.
ICEVEDQKEEVQ was tested, and the “COUNTS of radiolabeled gp120 retained” value [1] was 585 counts.
For ICEVEDQKEEVQLLV, the “COUNTS of radiolabeled gp120 retained” value [2] was 1084 counts.
ICEVEDQKEEVQLLVFGL was tested, and the “COUNTS of radiolabeled gp120 retained” value [2] was 3898 counts.
For IDIVVLAFQ, the “COUNTS of radiolabeled gp120 retained” value [7] was 691 counts.
For IDIVVLAFQKAS, the “COUNTS of radiolabeled gp120 retained” value [7] was 630 counts.
With IDIVVLAFQKASSIV the “COUNTS of radiolabeled gp120 retained” value [8] was 865 counts.
In the case of IDIVVLAFQKASSIVYKK, the “COUNTS of radiolabeled gp120 retained” value [8] is reported as 711 counts.
With IDIVVLAFQKASSIVYKKEGE the “COUNTS of radiolabeled gp120 retained” value (Panel A, 21-mers of CD4, empty control 515 and 617) was 962 counts.
For “IDSFILLEIIKQGCEFEN [CXCR4 segment 261-278]”, the “radioactive counts recorded” value [5] was 3472 counts and the “radioactive counts recorded” value [6] was 3884 counts.
For IEDSDTYIC, the “COUNTS of radiolabeled gp120 retained” value [1] was 567 counts.
In the case of IEDSDTYICEVE, the “COUNTS of radiolabeled gp120 retained” value [1] is reported as 1107 counts.
IEDSDTYICEVEDQK was tested, and the “COUNTS of radiolabeled gp120 retained” value [2] was 1143 counts.
With IEDSDTYICEVEDQKEEV the “COUNTS of radiolabeled gp120 retained” value [2] was 1230 counts.
For IFANVSEADDRYICDRFY, the “radioactive counts recorded” value [5] was 267 counts and the “radioactive counts recorded” value [6] was 679 counts.
In the case of IFFCVRCRHRRRQAERMSQIK, the “number of radioactive decays” value is reported as 2085 counts.
“IFLVMAVFLLTQMPFNLM [STRL33 segment 233-250]” was tested, and the “radioactive counts recorded” value [3] was 386.5 counts and the “radioactive counts recorded” value [4] was 772.5 counts.
With IFTIMIVYFLFWAPYNIV [CCR5 segment 237-] the “Counts per 20′ Average-background” value (background subtracted) was 121 counts per 20′.
With IFTRSQKEGLHYTCSSHF the “Counts per 20′ Average-background” value (background subtracted) was 98 counts per 20′.
For “IFYHKLQSLTDVFLVNLP [STRL33 segment 57-74]”, the “radioactive counts recorded” value [3] was 1275.5 counts and the “radioactive counts recorded” value [4] was 1256.5 counts.
